Data published in US11696913B2, “Prolonged ectoparasite-controlling agent for animal” (MITSUI CHEMICALS AGRO, INC., priority 2017, dated 2023).

Columns and labels:
Ctenocephalides felis [1] = experiment: Ctenocephalides felis in-vitro feeding test with fleas (CTECFE oral); conditions: 48 hours, read-out: insecticidal feeding activity; for pest or weed control at 0.16 ppm: dose 0.16 ppm in citrated cattle blood; for pest or weed control at 0.8 ppm: dose 0.8 ppm in citrated cattle blood; for pest or weed control at 4 ppm: dose 4 ppm in citrated cattle blood; for pest or weed control at 0.032 ppm: dose 0.032 ppm in citrated cattle blood
Method in brief: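 Scored as percent fleas killed (0–100%) 48 hours after feeding began. Compound, dissolved in DMSO and diluted into citrated cattle blood, was offered via a parafilm membrane to roughly 20 adult male and female C. felis at about 37° C.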

Plutella xylostella = experiment: Insecticidal testing against diamondback moth; type: in vivo; conditions: foliar, 144 h, concentration 100 ppm, cabbage leaf dip, third-stage larvae, after 6 days, read-out: pesticidal rate
Text: Insecticidal Testing Against Diamondback Moth (Plutella xylostella)

Laodelphax striatellus = experiment: Insecticidal testing against small brown planthopper; type: in vivo; conditions: 144 h, concentration 100 ppm, sprayed rice seedlings, after 6 days, read-out: pesticidal rate
Protocol: Insecticidal Testing Against Small Brown Planthopper (Laodelphax striatellus)
An additional test was carried out with 10 small brown planthoppers by preparing an acetone solution of the testing compound diluted to a predetermined concentration, spraying the solution onto rice seedlings and air drying the rice seedlings. The medicament was all used as received. The rice seedlings were placed in a constant-temperature room at 25° C., and the survival rate was investigated after 6 days. The test was carried out by means of one group of 10 pests.

Amblyomma americanum = experiment: In vitro contact test with hard ticks (Amblyomma americanum nymphs); conditions: read-out: acaricidal activity; for pest or weed control at 0.2 µg/cm2, 0.2 µg/cm2: dose 0.2 μg/cm^2, 48 h; for pest or weed control at 1 µg/cm2, 1 µg/cm2: dose 1 μg/cm^2, 48 h
Method in brief: (§1)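 Acaricidal activity = % ticks dead or moribund after 48 h contact with acetone-deposited compound on vial walls (e.g., 900 ppm solution → 5 μg/cm^2). Ambient conditions for R. sanguineus, 21° C./85% rel. hum. for other species; heat challenge at 45-50° C. separated climbers from moribund ticks.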

[2] = tested on: Rhipicephalus (Boophilus) microplus; experiment: In vitro injection test with Rhipicephalus (Boophilus) microplus (BOOPMI Inj); conditions: 168 h, laid fertile eggs after 7 days, read-out: acaricidal activity; for pest or weed control at 32 ng: dose 0.032 μg/animal injected; for pest or weed control at 0.00016 mg: dose 0.16 μg/animal injected; for pest or weed control at 0.0008 mg: dose 0.8 μg/animal injected
Method in brief: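 Five engorged adult females each get a 1 μl abdominal injection of compound dissolved and diluted in DMSO. Kept 7 days at 28° C./85% rel. hum.; percent activity rates egg laying and egg fertility (0% all fertile, 100% none laid or infertile).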

Dermacentor variabilis = experiment: In vitro contact test with adult hard ticks (Dermacentor variabilis); conditions: read-out: acaricidal activity; for pest or weed control at 0.2 µg/cm2, 0.2 µg/cm2: dose 0.2 μg/cm^2, 48 h; for pest or weed control at 1 µg/cm2, 1 µg/cm2: dose 1 μg/cm^2, 48 h
Method in brief: as §1

Spodoptera litura = experiment: Insecticidal testing against common cutworm; type: in vivo; conditions: foliar, 144 h, concentration 100 ppm, cabbage leaf dip, second-stage larvae, after 6 days, read-out: pesticidal rate
Text: Insecticidal Testing Against Common Cutworm (Spodoptera litura)

Ctenocephalides felis [3] = experiment: In vitro contact test with fleas; conditions: read-out: insecticidal activity; for pest or weed control at 0.04 µg/cm2, 0.04 µg/cm2: dose 0.04 μg/cm^2, dead or moribund fleas after 48 h; for pest or weed control at 0.2 µg/cm2, 0.2 µg/cm2: dose 0.2 μg/cm^2, dead or moribund fleas after 48 h; for pest or weed control at 1 µg/cm2, 1 µg/cm2: dose 1 μg/cm^2, dead or moribund fleas after 48 h
Method in brief: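 Activity is the percentage of fleas dead or moribund at 48 h, judged by immobility or uncoordinated movement after tapping. Tubes were coated by evaporating acetone solutions (900 ppm gives 5 μg/cm^2), then held 5-10 adult fleas of both sexes at room temperature and ambient humidity.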

Rhipicephalus sanguineus = experiment: In vitro contact test with adult hard ticks (Rhipicephalus sanguineus); conditions: read-out: acaricidal activity; for pest or weed control at 0.2 µg/cm2, 0.2 µg/cm2: dose 0.2 μg/cm^2, 48 h; for pest or weed control at 1 µg/cm2, 1 µg/cm2: dose 1 μg/cm^2, 48 h
Method in brief: as §1

CN(C(=O)c1ccc(F)cc1F)c1cccc(C(=O)Nc2c(I)cc(C(F)(C(F)(F)F)C(F)(F)F)cc2C(F)(F)F)c1F [Compound 56]
pest or weed control at 0.16 ppm (Ctenocephalides felis [1]): 95% | pest or weed control at 0.8 ppm (Ctenocephalides felis [1]): 95% | pest or weed control at 4 ppm (Ctenocephalides felis [1]): 95% | pest or weed control at 100 ppm (Plutella xylostella): ≥ 70% | pest or weed control at 100 ppm (Laodelphax striatellus): ≥ 70% | pest or weed control at 0.04 µg/cm2, 0.04 µg/cm2 (Amblyomma americanum; dose 0.04 μg/cm^2, 48 h): 90% | pest or weed control at 0.2 µg/cm2, 0.2 µg/cm2 (Amblyomma americanum): 90% | pest or weed control at 1 µg/cm2, 1 µg/cm2 (Amblyomma americanum): 90% | pest or weed control at 32 ng [2]: 100% | pest or weed control at 0.00016 mg [2]: 100% | pest or weed control at 0.0008 mg [2]: 100% | pest or weed control at 0.2 µg/cm2, 0.2 µg/cm2 (Dermacentor variabilis): 90% | pest or weed control at 1 µg/cm2, 1 µg/cm2 (Dermacentor variabilis): 90% | pest or weed control at 100 ppm (Spodoptera litura): ≥ 70% | pest or weed control at 0.04 µg/cm2, 0.04 µg/cm2 (Ctenocephalides felis [3]): 95% | pest or weed control at 0.2 µg/cm2, 0.2 µg/cm2 (Ctenocephalides felis [3]): 95% | pest or weed control at 1 µg/cm2, 1 µg/cm2 (Ctenocephalides felis [3]): 95%

O=C(Nc1cccc(C(=O)Nc2c(I)cc(C(F)(C(F)(F)F)C(F)(F)C(F)(F)F)cc2C(F)(F)F)c1F)c1ccc(Cl)c(Cl)c1 (stereo not drawn) [Compound 76]
pest or weed control at 0.8 ppm (Ctenocephalides felis [1]): 95% | pest or weed control at 4 ppm (Ctenocephalides felis [1]): 95% | pest or weed control at 100 ppm (Plutella xylostella): ≥ 70% | pest or weed control at 100 ppm (Laodelphax striatellus): ≥ 70% | pest or weed control at 0.04 µg/cm2, 0.04 µg/cm2 (Rhipicephalus sanguineus; dose 0.04 μg/cm^2, 48 h): 90% | pest or weed control at 0.2 µg/cm2, 0.2 µg/cm2 (Rhipicephalus sanguineus): 90% | pest or weed control at 1 µg/cm2, 1 µg/cm2 (Rhipicephalus sanguineus): 90% | pest or weed control at 1 µg/cm2, 1 µg/cm2 (Amblyomma americanum): 90% | pest or weed control at 0.00016 mg [2]: 100% | pest or weed control at 0.0008 mg [2]: 100% | pest or weed control at 0.2 µg/cm2, 0.2 µg/cm2 (Dermacentor variabilis): 90% | pest or weed control at 1 µg/cm2, 1 µg/cm2 (Dermacentor variabilis): 90% | pest or weed control at 100 ppm (Spodoptera litura): ≥ 70%

CN(C(=O)c1ccc(C(F)F)nc1)c1cccc(C(=O)Nc2c(I)cc(C(F)(C(F)(F)F)C(F)(F)F)cc2C(F)(F)F)c1F [Compound 87]
pest or weed control at 0.032 ppm (Ctenocephalides felis [1]): 95% | pest or weed control at 0.16 ppm (Ctenocephalides felis [1]): 95% | pest or weed control at 0.8 ppm (Ctenocephalides felis [1]): 95% | pest or weed control at 4 ppm (Ctenocephalides felis [1]): 95% | pest or weed control at 100 ppm (Plutella xylostella): ≥ 70% | pest or weed control at 100 ppm (Laodelphax striatellus): ≥ 70% | pest or weed control at 0.2 µg/cm2, 0.2 µg/cm2 (Amblyomma americanum): 90% | pest or weed control at 1 µg/cm2, 1 µg/cm2 (Amblyomma americanum): 90% | pest or weed control at 32 ng [2]: 100% | pest or weed control at 0.00016 mg [2]: 100% | pest or weed control at 0.0008 mg [2]: 100% | pest or weed control at 0.2 µg/cm2, 0.2 µg/cm2 (Dermacentor variabilis): 90% | pest or weed control at 1 µg/cm2, 1 µg/cm2 (Dermacentor variabilis): 90% | pest or weed control at 100 ppm (Spodoptera litura): ≥ 70% | pest or weed control at 0.04 µg/cm2, 0.04 µg/cm2 (Ctenocephalides felis [3]): 95% | pest or weed control at 0.2 µg/cm2, 0.2 µg/cm2 (Ctenocephalides felis [3]): 95% | pest or weed control at 1 µg/cm2, 1 µg/cm2 (Ctenocephalides felis [3]): 95%

CN(C(=O)c1ccc(F)cc1)c1cccc(C(=O)Nc2c(Br)cc(C(F)(C(F)(F)F)C(F)(F)C(F)(F)F)cc2OC(F)(F)F)c1F (stereo not drawn) [Compound 94]
pest or weed control at 0.032 ppm (Ctenocephalides felis [1]): 95% | pest or weed control at 0.16 ppm (Ctenocephalides felis [1]): 95% | pest or weed control at 0.8 ppm (Ctenocephalides felis [1]): 95% | pest or weed control at 4 ppm (Ctenocephalides felis [1]): 95% | pest or weed control at 100 ppm (Plutella xylostella): ≥ 70% | pest or weed control at 100 ppm (Laodelphax striatellus): ≥ 70% | pest or weed control at 0.2 µg/cm2, 0.2 µg/cm2 (Rhipicephalus sanguineus): 90% | pest or weed control at 1 µg/cm2, 1 µg/cm2 (Rhipicephalus sanguineus): 90% | pest or weed control at 0.2 µg/cm2, 0.2 µg/cm2 (Amblyomma americanum): 90% | pest or weed control at 1 µg/cm2, 1 µg/cm2 (Amblyomma americanum): 90% | pest or weed control at 6.4 ng ([2]; dose 0.0064 μg/animal injected): 100% | pest or weed control at 32 ng [2]: 100% | pest or weed control at 0.00016 mg [2]: 100% | pest or weed control at 0.0008 mg [2]: 100% | pest or weed control at 1 µg/cm2, 1 µg/cm2 (Dermacentor variabilis): 90% | pest or weed control at 100 ppm (Spodoptera litura): ≥ 70%

CN(C(=O)c1ccc(C(F)(F)F)nc1)c1cccc(C(=O)Nc2c(I)cc(C(F)(C(F)(F)F)C(F)(F)F)cc2OC(F)(F)F)c1F [Compound 117, N-(2-fluoro-3-((2-iodo-4-(perfluoropropan-2-yl)-6-(trifluoromethoxy)phenyl)carbamoyl)phenyl)-N-methyl-6-(trifluoromethyl)nicotinamide]
pest or weed control at 0.032 ppm (Ctenocephalides felis [1]): 95% | pest or weed control at 0.16 ppm (Ctenocephalides felis [1]): 95% | pest or weed control at 0.8 ppm (Ctenocephalides felis [1]): 95% | pest or weed control at 4 ppm (Ctenocephalides felis [1]): 95% | pest or weed control at 100 ppm (Plutella xylostella): ≥ 70% | pest or weed control at 100 ppm (Laodelphax striatellus): ≥ 70% | pest or weed control at 0.2 µg/cm2, 0.2 µg/cm2 (Rhipicephalus sanguineus): 90% | pest or weed control at 1 µg/cm2, 1 µg/cm2 (Rhipicephalus sanguineus): 90% | pest or weed control at 1 µg/cm2, 1 µg/cm2 (Amblyomma americanum): 90% | pest or weed control at 32 ng [2]: 100% | pest or weed control at 0.00016 mg [2]: 100% | pest or weed control at 0.0008 mg [2]: 100% | pest or weed control at 100 ppm (Spodoptera litura): ≥ 70% | pest or weed control at 0.2 µg/cm2, 0.2 µg/cm2 (Ctenocephalides felis [3]): 95% | pest or weed control at 1 µg/cm2, 1 µg/cm2 (Ctenocephalides felis [3]): 95%
